{"source": "patent US6291515A", "about": "“Use of efomycins” (Bayer Aktiengesellschaft, priority 1996, dated 2001)", "format_in_all_cases": "cell-based", "key": {"[1]": {"test_system": "adhesion of human PMNL to hypoxia-stimulated pig aorta", "assay": "Inhibition of PMNL adhesion to hypoxia-stimulated pig aortas, human PMNL", "details": "proportion of adherent PMNL vs control (=100), 90-minute coincubation at 37° C., MPO readout", "protocol": "(§1) Freshly isolated pig aortas were brought into the laboratory from the local slaughterhouse in oxygen-aerated, phosphate-buffered saline solution (PBS). Freshly obtained pig or human blood was taken for the preparation of polymorphonuclear neutrophilic granulocytes (PMNL). The aortas were stimulated by placing them for 30 minutes in PBS which was aerated with nitrogen (hypoxia stimulus). The aorta were then fixed between a Teflon block (below) and a specially made steel plate (above) with drilled wells (similar to a microtiter plate). PMNL and the potential adhesion inhibitors were added to the luminal side, i.e. to the stimulated endothelial cell layer, in cell media (M199, Gibco). After a 90-minute coincubation at 37° C. in an incubator, the wells were washed. The remaining adherent PMNL were lysed. The activity of the PMNL-specific myeloperoxidase (MPO) in the lysate was determined photometrically and compared to the untreated control (only solvent). […] The proportion of the adherent PMNL in comparison with the control is indicated.\n(§2) Inhibition of the adhesion of pig PMNL or human PMNL to hypoxia-stimulated pig aorta by efomycins"}, "[2]": {"test_system": "adhesion of pig PMNL to hypoxia-stimulated pig aorta", "assay": "Inhibition of PMNL adhesion to hypoxia-stimulated pig aortas, pig PMNL", "details": "for % adherent PMNL, Pig PMNL: hypoxia-stimulated pig aorta, proportion of adherent PMNL vs control (=100), 90-minute coincubation at 37° C., MPO readout", "protocol": "as §1, §2"}, "[3]": {"test_system": "cultured endothelial cells", "assay": "MTT test for cytotoxicity on endothelial cells", "details": "at efficacious concentrations"}, "[4]": {"test_system": "adhesion of PMNL to albumin-coated plastic surfaces", "assay": "Adhesion of PMNL to albumin-coated plastic surfaces", "details": "test described in EP 0 461 499 A2 (Use Example 1)", "excerpt": "The adhesion test to albumin-coated plastic surfaces is described in detail, inter alia, in EP 0 461 499 A2 (Use Example 1)."}}, "data": [{"smiles": "CC[C@@H](/C=C/C(=O)[C@@H](C)[C@H](OC(C)=O)[C@H](C)[C@H]1OC(=O)/C=C/C=C/[C@H](C)[C@@H]([C@@H](C)[C@@H](OC(C)=O)[C@H](C)C(=O)/C=C/[C@H](CC)[C@@H](C)OC(C)=O)OC(=O)/C=C/C=C/[C@@H]1C)[C@@H](C)OC(C)=O", "note": "[Ex. No. 2]", "values": [{"measurement": "% adherent PMNL, Human PMNL", "setting": "[1]", "value": "90 ± 5", "unit": "%"}, {"measurement": "% adherent PMNL, Pig PMNL", "setting": "[2]", "value": "85 ± 11", "unit": "%"}]}, {"smiles": "CC[C@@H](/C=C/C(=O)[C@@H](C)[C@H](O)[C@H](C)[C@H]1OC(=O)/C=C/C=C/[C@H](C)[C@@H]([C@@H](C)[C@@H](O)[C@H](C)C(=O)/C=C/[C@H](CC)[C@@H](C)O)OC(=O)/C=C/C=C/[C@@H]1C)[C@@H](C)O", "note": "[Ex. No. 1]", "values": [{"measurement": "% adherent PMNL, Human PMNL", "setting": "[1]", "value": "52 ± 2", "unit": "%"}, {"measurement": "cytotoxicity against endothelial cells in the MTT test", "setting": "[3]", "value": "no cytotoxicity"}, {"measurement": "activity in the test model described (PMNL adhesion to hypoxia-stimulated pig aorta), in words", "setting": "[2]; PMNL species not given", "value": "active"}, {"measurement": "% adherent PMNL, Pig PMNL", "setting": "[2]", "value": "33 ± 23", "unit": "%"}, {"measurement": "inhibition of adhesion of PMNL to albumin-coated plastic surfaces", "setting": "[4]", "value": "does not inhibit"}]}]}
